1 molecule from patent publication US20110009616A1, “AGENT FOR PREVENTING ARTERIOSCLEROSIS” (priority 2006, published 2011) can be followed below.

One assay deals with T1, hLOX-1 (Homo sapiens, UniProt P78380).
T1 construct: expressed in transfected cells; host or cells: CHO-K1 Tet-On cell line (Clontech), pTRE-hLOX1 (B), doxycycline induction
The experiment in a line: Fluorescently labeled oxidized LDL uptake into CHO cells expressing hLOX-1, tetracycline induction (Example 6). Type of assay: cell-based. Conditions: FIG. 5; control = 100%; compared with anti-hLOX antibody. The method, then: As for the same compounds as in Example 5, using Chinese hamster ovary (CHO) cells stably expressing bLOX-1, an ability to suppress fluorescently labeled oxidized LDL uptake into the CHO cells through the bLOX-1 was evaluated. Furthermore, as for the hLOX-1, in the CHO cells using an induction system of tetracycline gene expression, an ability to suppress fluorescently labeled oxidized LDL uptake through the hLOX-1 was evaluated.
As the CHO cells which express the hLOX-1 depending on tetracycline concentrations, the cells transfected with the plasmid described below in a known method were used. The transfected plasmid has a system where a hLOX-1 coding region integrated in pcDNA3.1-hLOX1-V5 (Journal of Molecular and Cellular Cardiology 39 (3) 553-561 (2005)) is mounted in a tetracycline response vector and the expression of hLOX-1 can be controlled depending on the concentration of tetracycline or doxycycline.
An assay using the CHO cells was carried out in the following manner. […] Then, the oxidized LDL labeled with 1,1′-dioctadecyl-3,3,3′,3′-tetramethylindocarbocyanine perchlorate (DiI, manufactured by Invitrogen), a carbocyanine fluorescence pigment, was applied to each well so as to be 5 μg/mL, and, under the environment described above, the uptake of the fluorescently labeled oxidized LDL was performed into the CHO cells for 4 hours. […]

Assay [1] concerns caveola transport pathway. The experiment in a line: Uptake of CTB, transport marker of caveola pathway, into COS-1 cells (Example 7). Conditions: FIG. 6. Type of assay: cell-based, African green monkey.
In assay [2] the test system is normal bovine aortic endothelial cell (BAEC). Kind of assay: DiI-OxLDL uptake into normal bovine aortic endothelial cells (Example 7). Format: cell-based. The conditions noted are these: FIG. 6.
For another assay, the target named is bLOX-1 (Bos taurus, UniProt P79391). Kind of assay: Plate assay: binding of oxidized LDL to recombinant bLOX-1 (Test Example 1). Also noted: 6xHis (N); made in house; host or cells: E. coli; species or system bovine. The method, then:
A LOX-1 antagonist activity of the agent for preventing arteriosclerosis obtained in the above-mentioned Example was evaluated on a LOX-1 binding inhibition rate to oxidized LDL using a recombinant LOX-1 protein obtained from E. coli.
As for the recombinant LOX-1, in cDNA of LOX-1 derived from bovine (bLOX-1) or derived from human (hLOX-1), a sequence to the C-terminal removing a transmembrane region was inserted into a pQE30 vector having a 6-histidine tag sequence (6×His) at the N-terminal (manufactured by Qiagen) so as to have a sequence aligned to a translation frame. The vector was transformed into E. coli able to be controlled by T5 promoter and the expression of each LOX-1 was induced under induction of 1 m M of isopropyl-1-thio-β-D-[…] (IPTG). After the induction of each expression at 37° C. for 3 hours, since the recombinant LOX-1 was obtained from an insoluble fraction, E. coli was lysed in a buffer containing 6 M guanidine hydrochloride and purified by affinity column chromatography using a Ni-NTA agarose column (manufactured by Qiagen) as the marker of 6×His (solvent: phosphoric acid buffer). Furthermore, each of the elution fractions containing LOX-1 was dialyzed in a 20 mM tris buffer (pH 9.0) and a 8M urea containing buffer, applied to a HiTrap Q column, an anion exchanger, (manufactured by Amersham), and eluted and purified with a linear concentration gradient of NaCl. Each of the fractions containing LOX-1 obtained above was reduced in a buffer containing excess amount of DTT (dithiothreitol), and then intramolecular S-S bonds were unwinded by a redox system using a mixture of oxidized […] low molecular thiol compounds. Each LOX-1 obtained above has a binding ability to the oxidized LDL and will be used as a LOX-1 standard for the following plate assays.
The plate assay was carried out using MaxiSorp Immuno Plate (96-well type, manufactured by NUNC). Each LOX-1 purified above was prepared with a PBS buffer so as to be 5 μg/mL, and 100 μL of the solution was applied to each well. After leaving at 4° C. overnight, each well was washed with 400 μL of a PBS buffer twice (400 μL×2) and 300 μL of a PBS buffer containing 25% BlockAce (manufactured by Dainippon Sumitomo Pharma Co., Ltd.) was applied to each well. After leaving at 4° C. overnight, each well was washed with 400 μL of a PBS buffer twice (400 μL×2), a solution of ethyl pheophorbide a was prepared with a PBS buffer containing 1% bovine serum albumin (BSA) so as to have an appropriate dilution rate, and 100 μL of the solution was applied to each well. After leaving at 4° C. overnight, each well was washed with 400 μL of a PBS buffer three times (400 μL×3), a solution of oxidized LDL was prepared with a PBS buffer so as to be 5 μg/mL, and 100 μL of the solution was applied to eachr well. After leaving at 4° C. overnight, each well was washed with 400 μL of a PBS buffer three times (400 μL×3), a horseradish peroxidase-conjugated anti-apolipoprotein B antibody (manufactured by The Binding Site) was diluted 1000 times with a PBS buffer, and 100 μL of the solution was applied to each well. After leaving at room temperature for 2 hours, each well was washed with 400 μL of a PBS buffer five times (400 μL×5), and 100 μL of a 3,3′,5,5′-tetramethylbenzidine (TMB) peroxidase-enzyme immunoassay (EIA)-substrate-kit reagent (manufactured by Bio-Rad) was applied to each well. After an appropriate reaction period, 50 μL of 2M H2SO4 was applied to each well to stop the reaction. Finally, a LOX-1 antagonist activity (an oxidized LDL binding inhibition rate to LOX-1) was determined by detection at 450 nm.

Chain of bLOX-1 (P79391 57-270 limits assumed): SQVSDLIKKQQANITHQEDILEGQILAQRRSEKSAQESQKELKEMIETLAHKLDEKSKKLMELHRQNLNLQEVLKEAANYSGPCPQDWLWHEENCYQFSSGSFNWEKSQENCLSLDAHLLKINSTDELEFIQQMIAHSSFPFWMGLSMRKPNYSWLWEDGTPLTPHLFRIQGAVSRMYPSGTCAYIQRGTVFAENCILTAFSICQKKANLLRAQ

With `C=Cc1c(C)c2cc3nc(c4c5[nH]c(cc6nc(cc1[nH]2)C(C)=C6CC)c(C)c5C(=O)[C@@H]4C(=O)OC)[C@@H](CCC(=O)O)[C@@H]3C` [pheophorbide a], the “amount of oxidized LDL uptake into CHO cells expressing hLOX-1” value on hLOX-1 is on record as “stronger uptake inhibition on hLOX-1 than that of the anti-hLOX antibody”. In assay [1], the “inhibition of caveola transport pathway (CTB uptake)” value is on record as “inhibits the caveola transport pathway significantly”. In addition, the “inhibitory activity on DiI-OxLDL uptake, compared with anti-LOX-1 antibody” value in assay [2] is “stronger than that of the anti-LOX-1 antibody”. Moreover, the concentration for half-maximal inhibition (IC50) on bLOX-1 (concentration dependence, FIG. 2) was roughly 100 nM. Also, the “inhibition activity on binding of oxidized LDL to bLOX-1 (ranking among actives)” value at bLOX-1 (final concentration of 16 μM, FIG. 1) is reported as “high inhibition activities”. The “binding rate of oxidized LDL to bLOX-1 (inhibition of binding)” value at bLOX-1 (final concentration of 16 μM, FIG. 1, control without compounds = 100) is given as “inhibit the binding significantly”.

What is called IC50 is the concentration that gives 50% inhibition.
